Converted amounts (≈) assume the structure as drawn.
Details: for aqueous solubility: pH 6.8

| SMILES | MDR1-MDCK efflux ratio | intrinsic clearance, human liver microsomes | intrinsic clearance, rat liver microsomes | aqueous solubility | fraction unbound, human plasma | fraction unbound, rat plasma |
| --- | --- | --- | --- | --- | --- | --- |
| CC(O)(C#Cc1ccc2c(c1)N(c1nc(N)ncc1Cl)CC2)c1nccs1 (stereo not drawn) | 5.75 | 72.5 mL/min/kg | 327 mL/min/kg |  | 0.00754 | 0.0188 |
| OC1CCN(c2ncc(-c3cnccn3)c(-c3cccs3)n2)CC1 | 1.14 | 7.01 mL/min/kg | ≤ 10.7 mL/min/kg | 47.9 µg/mL (≈ 141 µM) |  |  |
| Cc1cc(N(C)CC(C)(C)O)ncc1Br |  | 36.1 mL/min/kg | 970 mL/min/kg |  |  |  |
| O=C1Nc2ccc(Cl)cc2[C@@](C#CC2CC2)(C(F)(F)F)O1 |  |  |  | 15.3 µg/mL (≈ 48.4 µM) |  |  |
| COc1cc(CN2CCC(C(=O)N3CCOCC3)CC2)ccc1C | 2.9 | 9.42 mL/min/kg | 228 mL/min/kg |  |  |  |
| CC(C)N1CC[C@H](c2nnc(-c3cncn3C)o2)C1 |  | ≤ 4.74 mL/min/kg | 79.2 mL/min/kg | 39.3 µg/mL (≈ 150 µM) |  |  |
| O=C(c1cccc(Cl)c1)N1CCN(C(=O)c2ccc3ccccc3c2O)CC1 | 0.678 | 28.8 mL/min/kg | 166 mL/min/kg | 2.4 µg/mL (≈ 6.08 µM) |  |  |
| CN(C)c1ccc2c(c1)OCCN2C(=O)NCc1cccnc1 | 2.66 | 23.6 mL/min/kg | 746 mL/min/kg | 48.1 µg/mL (≈ 154 µM) |  |  |
| c1cncc(-c2nnc3n2[C@H]2CN(Cc4cccs4)C[C@H]2CC3)c1 | 2.69 | 7.21 mL/min/kg | 343 mL/min/kg |  |  |  |
| NC1CCC(C(=O)N2CCC(c3c[nH]c4ncccc34)CC2)C1 (stereo not drawn) | 2.66 | ≤ 4.74 mL/min/kg |  |  | 0.827 |  |
| CCOc1ccc2[nH]c(C(=O)N3CC[C@@](O)(CC(C)C)[C@@H](Oc4ccc(F)cc4)C3)c(C)c2c1 | 6.74 | 109 mL/min/kg | 943 mL/min/kg |  |  |  |
| Cc1cccc(-c2cccc(C(=O)NCCC3(O)CCCC3)c2)n1 | 2.77 | 21.6 mL/min/kg | 2910 mL/min/kg |  |  |  |
| CCCN(Cc1ccccc1)C(=O)CC1(N)CCC1 | 11.9 | ≤ 4.74 mL/min/kg | 725 mL/min/kg | 56.4 µg/mL (≈ 217 µM) |  |  |
| Cc1cc(N(CCO)CCCO)ncc1Br | 0.766 | 12.4 mL/min/kg | 478 mL/min/kg |  |  |  |
| Cc1nc(CC2CCN(S(=O)(=O)c3c(C)noc3C)CC2)cc(NC2CCCC2)n1 | 11.4 | 249 mL/min/kg | 2420 mL/min/kg | 60.5 µg/mL (≈ 139 µM) |  |  |
| O=C(Cc1ccc(Cl)cc1)NCc1ccncc1 | 0.772 | ≤ 4.74 mL/min/kg | 35.9 mL/min/kg | 51.6 µg/mL (≈ 198 µM) |  |  |
| Nc1nnc(-c2ccc3c(c2)OCCO3)o1 | 0.657 | ≤ 4.74 mL/min/kg | 61.4 mL/min/kg | 23.4 µg/mL (≈ 107 µM) |  |  |

| SMILES | MDR1-MDCK efflux ratio | intrinsic clearance, human liver microsomes | intrinsic clearance, rat liver microsomes | aqueous solubility | fraction unbound, human plasma | fraction unbound, rat plasma |
| --- | --- | --- | --- | --- | --- | --- |
| CC(=O)N1CCCN(Cc2c(C)nn(C)c2Cl)CC1 | 3.19 | 11.6 mL/min/kg | 43.7 mL/min/kg | 41.1 µg/mL (≈ 144 µM) |  |  |
| COc1cc(/C=C/c2nccc(C#N)n2)ccc1F |  |  |  | 3.27 µg/mL (≈ 12.8 µM) |  |  |
| CSc1ccc(CN(CCO)C(=O)CCc2cccc(F)c2)cc1 | 0.961 | 151 mL/min/kg | 2520 mL/min/kg | 29.1 µg/mL (≈ 83.6 µM) |  |  |
| CNCc1cc(NC)nc(C2CCCN2C(=O)C(C)(C)c2ccc(C)cc2)n1 (stereo not drawn) | 36.8 | 16.2 mL/min/kg | 153 mL/min/kg |  |  |  |
| Cc1cc(F)ccc1CC(=O)N[C@@H]1CCOC[C@H]1OCCO | 19.7 | ≤ 4.74 mL/min/kg | ≤ 10.7 mL/min/kg | 47.8 µg/mL (≈ 153 µM) |  |  |
| Cc1ccnc(-n2nccc2NC(=O)NC2(C)CCC2)c1 | 0.579 | 72.8 mL/min/kg | 931 mL/min/kg |  |  |  |
| O=C(O)c1ccc(Nc2ncc3c(n2)-c2ccc(Cl)cc2C(c2c(F)cccc2F)=NC3)cc1 | 3.32 | ≤ 4.74 mL/min/kg | 102 mL/min/kg | 47.1 µg/mL (≈ 98.8 µM) |  |  |
| O=C(C1CCCN(c2ccccn2)C1)N1CCc2ccccc2C1 (stereo not drawn) |  | 172 mL/min/kg | 1520 mL/min/kg | 49.2 µg/mL (≈ 153 µM) |  |  |
| CSc1nccc(N2Cc3cnn(Cc4ccc(F)cc4)c3C2)n1 | 0.579 | 141 mL/min/kg | 2590 mL/min/kg |  |  |  |
| O=C(NO)c1cnc(NC2(c3cccc(F)c3)CCCCC2)nc1 |  | 14.4 mL/min/kg | 306 mL/min/kg |  |  |  |
| Cc1cnc(NC(=O)Cc2coc3cc(C)c(C)cc23)s1 |  |  |  | 0.32 µg/mL (≈ 1.07 µM) |  |  |
| O=C(CN1CCSC1=O)Nc1ccccc1F | 0.739 | ≤ 4.74 mL/min/kg | ≤ 10.7 mL/min/kg | 31.6 µg/mL (≈ 124 µM) |  |  |
| COc1ccc2cc(-c3[nH]c(-c4ccc(S(C)=O)cc4)nc3-c3ccncc3)ccc2c1 (stereo not drawn) | 34.8 | 4.96 mL/min/kg | 121 mL/min/kg | 3.4 µg/mL (≈ 7.74 µM) |  |  |
| O=C(CSc1nccn1C1CC1)Nc1c(Cl)cc(Cl)cc1C(=O)O | 8.29 | 41.6 mL/min/kg | 204 mL/min/kg | 2.43 µg/mL (≈ 6.29 µM) |  |  |
| C[C@@]12CCCN1C(=O)[C@H](C1CCCCC1)NC2=O | 2.65 | ≤ 4.74 mL/min/kg | 20.8 mL/min/kg |  |  |  |
| O=S(=O)(c1ccccc1Cl)N1CCCc2cnc(N3CCOCC3)nc21 | 0.697 |  |  | 1 µg/mL (≈ 2.53 µM) |  |  |
| CS(=O)(=O)NC1CCN(C(=O)NCCc2ccc(F)cc2)CC1 | 35.3 | ≤ 4.74 mL/min/kg | 61.4 mL/min/kg | 67.9 µg/mL (≈ 198 µM) |  |  |

Now from value to compound:

| MDR1-MDCK efflux ratio | intrinsic clearance, human liver microsomes | intrinsic clearance, rat liver microsomes | aqueous solubility | fraction unbound, human plasma | fraction unbound, rat plasma | SMILES |
| --- | --- | --- | --- | --- | --- | --- |
| 0.717 | 23.9 mL/min/kg | 159 mL/min/kg | 5.34 µg/mL (≈ 18 µM) |  |  | Cc1cc(Nc2ccc3c(c2)oc(=O)n3C)nc(C2CC2)n1 |
|  |  |  | 0.84 µg/mL (≈ 2.9 µM) |  |  | O=C(c1cc(-c2ccccc2)[nH]n1)N1CCc2ccccc21 |
| 10.7 | 68.6 mL/min/kg | 308 mL/min/kg |  |  |  | COc1cccc(CC(=O)N2CCOC(c3cc(Nc4nnc(C)s4)cc(C)n3)C2)c1 (stereo not drawn) |
|  | ≤ 4.74 mL/min/kg | ≤ 10.7 mL/min/kg | 34.4 µg/mL (≈ 168 µM) |  |  | Cc1nnc(-c2cccc(C(=O)O)c2)o1 |
| 0.738 |  |  |  |  |  | O=C(NNc1ccccc1)c1ccncc1 |
|  |  |  | 30.9 µg/mL (≈ 121 µM) |  |  | Cc1nnc(-c2ccccc2-c2c[nH]nc2C)s1 |
| 17 | 23.8 mL/min/kg | 5470 mL/min/kg | 32.2 µg/mL (≈ 101 µM) |  |  | Cc1cc(NCc2ccnc(N3CCCC3)c2)c2ccccc2n1 |
|  |  |  | 0.14 µg/mL (≈ 0.481 µM) |  |  | COc1ccc(Nc2nc3ccccc3c3nncn23)cc1 |
|  | ≤ 4.74 mL/min/kg | 17.4 mL/min/kg |  |  |  | O=C(NO)c1cnc(NC2(c3ccccc3)CC2)nc1 |
| 4.31 | 34.9 mL/min/kg | 402 mL/min/kg | 53.5 µg/mL (≈ 174 µM) |  |  | CC(C)c1nc2c(n1C)CCN(c1ncnc3ccccc13)C2 |
| 0.743 | 27 mL/min/kg | 351 mL/min/kg |  |  |  | CCCc1noc(CN2CCN(c3ccccc3OC)CC2)n1 |
|  | 88.2 mL/min/kg | 173 mL/min/kg | 10.4 µg/mL (≈ 43.9 µM) |  |  | Cc1ccc(C(=O)Nc2ccccc2C#N)cc1 |
|  | ≤ 4.74 mL/min/kg | ≤ 10.7 mL/min/kg |  |  |  | CONC(=O)c1c2c(nc3ccccc13)CCC2 |
| 0.459 |  |  | 0.37 µg/mL (≈ 1 µM) |  |  | CCCCOc1ccccc1-c1cc(C(=O)NCCc2cccs2)[nH]n1 |
|  |  |  | 0.66 µg/mL (≈ 2.35 µM) |  |  | CC1=NC(Nc2nc(C)c3ccccc3n2)=NC(C)(C)C1 |
| 0.658 | 63.2 mL/min/kg | 3020 mL/min/kg | 15.7 µg/mL (≈ 48 µM) |  |  | c1ccc(CO[C@@H]2CCC[C@H]2n2cc(-c3nccs3)nn2)cc1 |
| 0.117 |  |  | 0.44 µg/mL (≈ 1.57 µM) |  |  | Cc1cc(F)ccc1NC(=O)c1cccc2cccnc12 |
| 1.09 | 107 mL/min/kg | 443 mL/min/kg | 41.7 µg/mL (≈ 139 µM) |  |  | c1ccc(CCc2n[nH]c(-c3cccc4cnccc34)n2)cc1 |
| 2 | ≤ 4.74 mL/min/kg | ≤ 10.7 mL/min/kg | 42.8 µg/mL (≈ 184 µM) |  |  | Cc1ccc(CC(=O)Nc2nc(C)no2)cn1 |
|  | ≤ 4.74 mL/min/kg | 319 mL/min/kg | 41 µg/mL (≈ 146 µM) |  |  | Cc1nc(-c2ccccc2)ccc1C(=O)NC1CCCC1 |
|  | 85.7 mL/min/kg | 82.2 mL/min/kg | 29.2 µg/mL (≈ 115 µM) |  |  | CNc1cc(C)nc(-c2ccnc3c2ccn3C)n1 |
| 0.847 | 18.5 mL/min/kg | 506 mL/min/kg | 45 µg/mL (≈ 137 µM) |  |  | Cc1nn(C)c2nc(N3CCN(C)C[C@@H]3c3ccccc3)sc12 |
| 1.11 | 114 mL/min/kg | 929 mL/min/kg | 49 µg/mL (≈ 133 µM) |  |  | Cc1ccccc1C(=O)N1CCC[C@@H]1Cn1nnn(-c2cccs2)c1=O |
|  | 34.6 mL/min/kg | 1080 mL/min/kg |  |  |  | O=C(Nc1c(F)cccc1Oc1ccccc1)c1cnccn1 |
| 1.12 | 768 mL/min/kg | 1520 mL/min/kg | 23.8 µg/mL (≈ 53.3 µM) | 0.00509 | 0.00257 | Cc1ccc(C(=O)N2CCC(Cc3ccccc3-c3ccccc3)(C(=O)N(C)C)CC2)s1 |
| 55.2 | ≤ 4.74 mL/min/kg | 75 mL/min/kg |  |  |  | CN(C)c1ccc(-c2ccc(C(=O)NCCN3CCCC3=O)cc2)nn1 |
| 0.742 | 657 mL/min/kg | 4170 mL/min/kg | 29.7 µg/mL (≈ 82.8 µM) |  |  | Cc1nc2c(c(N(C)Cc3ccccc3)n1)CCN(Cc1ccccc1)C2 |

From the Biogen ADME set (Fang et al. 2023)
